Data: publication PMC1977926, “Human pancreatic cancer cell lines do not express receptors for somatostatin” (British Journal of Cancer, 1992)
Blank lines part the entries; values can stand above or below the molecule they belong to. Bridge positions count the residues as written; N and C are the ends. Square brackets hold non-standard residues; d marks the D form. Peptide text beside a SMILES is read from it. Tyr(3-I) = N[C@@H](Cc1ccc(O)c(I)c1)C(=O)O

Key:
[1] = tested on: MiaPaCa-2 human ductal pancreatic carcinoma cell line; test: Proliferation of MiaPaCa-2 (3H-thymidine incorporation); type: cell-based; details: three experiments, five determinations; for Stimulation of growth of MiaPaCa-2: serum free medium, 3H-thymidine incorporation, P<0.01 compared to untreated cells
Source text: (§1) Br. J. Cancer (1992), 66, 483 487 ? […] Somatostatin (SS) is a tetradecapeptide widely distributed throughout the body, being found in high concentrations in the brain, stomach, intestine and pancreas (Reichlin, 1983). Somatostatin exerts inhibitory actions on the cellular func- tions within a variety of tissues including secretion and growth (Konturek et al., 1988; Meyers & Coy, 1980; Schally, 1988). […] It has therefore been proposed that somatostatin may be capable of inhibiting pancreatic tumour growth indirectly via the suppression of secretion of pancreatic trophic hor- mones and/or by direct effects on the tumour itself (Schally et al., 1988; Liebow et al., 1989). […] For somatostatin to impair directly the growth of pancreatic cancer the cells should therefore express receptors for the peptide. The aim of these study was to determine the somatostatin receptor status of two human (MiaPaCa-2 & Panc-1) and a rat (AR42J) pancreatic cancer cell lines. We have also studied the effects of somatostatin-14 and RC-160 on the proliferation of these three cell lines. Materials and methods Cell growth MiaPaCa-2 and Panc-1 are both human ductal pancreatic carcinoma cell lines and were obtained from the European Cell Culture Collection. AR42J is a rat pancreatic acinar tumour cell line and was kindly provided by Dr S. Watson (Cancer Research Campaign Laboratories, Nottingham Uni- versity). MiaPaCa-2 and Panc-l were routinely grown in Dulbecco's Modified Eagle's Medium (DMEM) containing 10% foetal calf serum (ICN Flow, Irvine). AR42J cells were grown in RPMI 1640 containing 10% FCS (ICN Flow, Irvine). The cells were trypsinised and plated out in 96 well plates at 5 x I04 cells ml-' in serum-free (SF) medium for 24 h. After this period of serum starvation the medium was supple- mented with EGF (Sigma, Dorset) or IGF-I (Peninsula, St Helens) with or without SS-14 (Sigma, Dorset) or RC-160 (Peninsula, St Helens). EGF, IGF-1, SS-14 and RC-160 were added at concentrations described in the Results section. The cells were then incubated for 48 h at 37?C. DNA synthesis was assessed for the final 6 h by adding 0.5 liCi 3H-thymi- dine/well. The cells were then collected onto filter mats using a semi-automatic cell harvester (Inotech, Switzerland). Scin- tillation fluid was added to individual filter discs and the cell associated radioactivity counted in a beta counter (Packard 1900CA Tricarb). Binding studies Binding of ['25I-tyr"]Somatostatin (Amersham International) was performed on membranes prepared from the three cell lines. Cells were washed twice with phosphate buffered saline (pH 7.4), then removed from 150 cm2 flasks using a cell scraper. […] The protein content of the suspension was determined using a bicinchoninic acid kit (Pierce, Rockford, USA).

[2] = tested on: Panc-1 human ductal pancreatic carcinoma cell line; test: Proliferation of Panc-1 (3H-thymidine incorporation); type: cell-based; details: 48 h, three experiments, five determinations; for Stimulation of growth of Panc-1: serum free medium, 3H-thymidine incorporation, P<0.01 compared to untreated cells
Source text: as §1

[3] = tested on: endocrine secretion of cholecystokinin, gastrin and secretin; details: ref Schally et al., 1978; cited from earlier work
Source text: (§2) Br. J. Cancer (1992), 66, 483 487 ? […] Summary The in vivo administration of somatostatin (SS) or its analogues is capable of suppressing the growth of pancreatic cancer in experimental animals. We examined the effects of SS-14 and its analogue RC-160 on the in vitro growth of ...

EGF receptor = details: ref Hierowski et al., 1985; cited from earlier work
Source text: as §2

MiaPaCa-2 = details: cited from earlier work
Source text: as §2

[4] = tested on: tyrosine phosphatase activity; details: in vitro, MiaPaCa-2; ref Liebow et al., 1989; cited from earlier work
Source text: as §2

Panc-1 = details: unstimulated cells, serum-free medium, one concentration; ref Liehr et al., 1990; cited from earlier work
Source text: as §2

[5] = tested on: somatostatin receptors on MiaPaCa-2; details: no Kd quoted, no total or non-specific binding curves; ref Hierowski et al. (1985); cited from earlier work
Source text: as §2

[6] = tested on: somatostatin binding sites in human pancreatic cancer xenograft; details: ref Singh and colleagues (1991); cited from earlier work
Source text: as §2

[7] = tested on: hamster experimental pancreatic cancer; details: ref Redding et al. (1984); cited from earlier work
Source text: as §2

[8] = tested on: rat experimental pancreatic cancer; details: ref Redding et al. (1984); cited from earlier work
Source text: as §2

[9] = tested on: pancreatic exocrine secretion of protein and bicarbonate; details: ref Boden et al., 1975; cited from earlier work
Source text: as §2

[10] = tested on: somatostatin receptors in human pancreatic adenocarcinomas; details: 12 fresh adenocarcinomas; ref Reubi et al. (1988); cited from earlier work
Source text: as §2

[11] = molecular target: T1, somatostatin receptors (AR42J membranes) (Rattus norvegicus, UniProt P30680); test: Displacement binding, 125I-SS, AR42J membranes; details: 125I-SS 0.5 nM, 1 h at 30 C
T1 construct: endogenous in cells; host or cells: AR42J rat pancreatic acinar tumour cell line (membrane preparation)
Source text: (§3) Br. J. Cancer (1992), 66, 483 487 ? […] Somatostatin (SS) is a tetradecapeptide widely distributed throughout the body, being found in high concentrations in the brain, stomach, intestine and pancreas (Reichlin, 1983). Somatostatin exerts inhibitory actions on the cellular func- tions within a variety of tissues including secretion and growth (Konturek et al., 1988; Meyers & Coy, 1980; Schally, 1988). […] It has therefore been proposed that somatostatin may be capable of inhibiting pancreatic tumour growth indirectly via the suppression of secretion of pancreatic trophic hor- mones and/or by direct effects on the tumour itself (Schally et al., 1988; Liebow et al., 1989). […] For somatostatin to impair directly the growth of pancreatic cancer the cells should therefore express receptors for the peptide. The aim of these study was to determine the somatostatin receptor status of two human (MiaPaCa-2 & Panc-1) and a rat (AR42J) pancreatic cancer cell lines. […] DNA synthesis was assessed for the final 6 h by adding 0.5 liCi 3H-thymi- dine/well. […] Scin- tillation fluid was added to individual filter discs and the cell associated radioactivity counted in a beta counter (Packard 1900CA Tricarb). […] The protein content of the suspension was determined using a bicinchoninic acid kit (Pierce, Rockford, USA).

[12] = molecular target: T1, somatostatin receptors (AR42J membranes); test: Saturation binding, 125I-SS, AR42J membranes; details: 125I-SS 0.05-1 nM, 2 h at 30 C, single class of high affinity binding sites (abstract)
Source text: as §3

[13] = tested on: somatostatin receptors (Panc-1 membranes); test: Displacement binding, 125I-SS, Panc-1 membranes; design: species or system human; details: 125I-SS 0.5 nM, unlabelled RC-160 10-6 to 10-11 M, 1 h at 30 C
Source text: as §3

[14] = tested on: somatostatin receptors (MiaPaCa-2 membranes); test: Displacement binding, 125I-SS, MiaPaCa-2 membranes; design: species or system human; details: 125I-SS 0.5 nM, unlabelled RC-160 10-6 to 10-11 M, 1 h at 30 C
Source text: as §3

T1 sequence (P30680 whole entry): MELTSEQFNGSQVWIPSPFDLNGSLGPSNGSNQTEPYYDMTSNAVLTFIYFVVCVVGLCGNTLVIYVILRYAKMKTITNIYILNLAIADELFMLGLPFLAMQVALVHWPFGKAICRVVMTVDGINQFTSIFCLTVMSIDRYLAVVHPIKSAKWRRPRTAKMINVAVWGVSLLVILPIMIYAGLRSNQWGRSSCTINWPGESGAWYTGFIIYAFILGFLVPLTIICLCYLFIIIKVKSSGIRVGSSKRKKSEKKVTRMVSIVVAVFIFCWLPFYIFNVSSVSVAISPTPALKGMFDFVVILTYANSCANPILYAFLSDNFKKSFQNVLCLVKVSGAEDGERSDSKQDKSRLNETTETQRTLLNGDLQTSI

Molecule: insulin-like growth factor 1 [IGF-1]
Stimulation of growth of MiaPaCa-2 ([1]; 48 h): increased the proliferation of the two cell lines (P<0.01 compared to untreated cells)
Stimulation of growth of Panc-1 [2]: increased the proliferation of the two cell lines (P<0.01 compared to untreated cells)

Molecule: SS-14: Somatostatin (SS) is a tetradecapeptide; SS-14 from Sigma, Dorset
Inhibition of endocrine secretion of cholecystokinin, gastrin and secretin [3]: inhibits the pancreatic exocrine secretion of protein and bicarbonate (Boden et al., 1975) and the endocrine secretion of cholecystokinin, gastrin and secretin
Dephosphorylation of the EGF receptor (EGF receptor): causes the dephosphorylation of the EGF receptor
Inhibition of EGF-stimulated growth of MiaPaCa-2 (MiaPaCa-2; in vitro, ref Liebow et al. (1986; 1989)): all inhibit the EGF- stimulated growth of MiaPaCa-2
Growth inhibitory effect, MiaPaCa-2 (MiaPaCa-2; unstimulated cells, serum-free medium, one concentration, ref Liehr et al., 1990): no growth inhibitory effect
Promotion of tyrosine phosphatase activity [4]: promotion of tyrosine phosphatase activity
Growth inhibitory effect, Panc-1 (Panc-1): no growth inhibitory effect
Bmax, MiaPaCa-2 [5]: 3.6 fmole mg-' protein
Specific binding sites in human pancreatic cancer xenograft [6]: one of these xenografts expressed specific binding sites
Inhibition of hamster experimental pancreatic cancer growth [7]: inhibition of both rat and hamster experimental pancreatic cancer growth
Inhibition of rat experimental pancreatic cancer growth [8]: inhibition of both rat and hamster experimental pancreatic cancer growth
Inhibition of pancreatic exocrine secretion [9]: inhibits the pancreatic exocrine secretion of protein and bicarbonate
Specific somatostatin receptors in fresh human pancreatic adenocarcinomas [10]: none of which contained specific somatostatin receptors
Effect on DNA synthesis in EGF stimulated MiaPaCa-2 cells ([1]; EGF 10^-8 M, serum free DMEM, 48 h at 37 C, 3H-thymidine for final 6 h, P>0.05 compared to stimulated cells): neither SS-14 nor RC-160 had any effect on DNA synthesis
Effect on DNA synthesis in IGF-1 stimulated MiaPaCa-2 cells ([1]; IGF-1 10^-8 M, serum free, 48 h, 3H-thymidine for final 6 h, P>0.05 compared to stimulated cells): neither SS-14 nor RC-160 had any effect on DNA synthesis
Effect on DNA synthesis in EGF stimulated Panc-1 cells ([2]; EGF 10^-8 M, serum free, 3H-thymidine for final 6 h, P>0.05 compared to stimulated cells): neither SS-14 nor RC-160 had any effect on DNA synthesis
Effect on DNA synthesis in IGF-1 stimulated Panc-1 cells ([2]; IGF-1 10^-8 M, serum free, 3H-thymidine for final 6 h, P>0.05 compared to stimulated cells): neither SS-14 nor RC-160 had any effect on DNA synthesis

Molecule: epidermal growth factor [EGF, epidermal growth factor (Sigma, Dorset)]
Stimulation of growth of MiaPaCa-2 ([1]; 48 h): stimulated the growth of both cell lines (P<0.01 compared to untreated cells), having a more pronounced effect on MiaPaCa-2
Stimulation of growth of Panc-1 [2]: stimulated the growth of both cell lines (P<0.01 compared to untreated cells)

Displacement of radiolabelled somatostatin from AR42J membranes ([11]; unlabelled RC-160 10-6 to 10-11 M, 50 mM Tris, 0.2% BSA, filtration): 95%
IC50 ([11]; competition, AR42J membranes, non-linear regression): 0.631 nM
Molecule: CC(C)[C@@H]1NC(=O)[C@H](CCCCN)NC(=O)[C@@H](Cc2c[nH]c3ccccc23)NC(=O)[C@H](Cc2ccc(O)cc2)NC(=O)[C@@H](NC(=O)[C@H](N)Cc2ccccc2)CSSC[C@@H](C(=O)N[C@@H](Cc2c[nH]c3ccccc23)C(N)=O)NC1=O [RC-160] (H-[dF]CY[dW]KVCW-NH2; disulfide 2-7)

Bmax [12]: 2.1 +/- 0.26 pmoles mg-1 protein
Displaceable binding, Panc-1 [13]: not displaceable binding was observed
Displaceable binding, MiaPaCa-2 [14]: not displaceable binding was observed
Molecule: C[C@H](N)C(=O)NCC(=O)N[C@H]1CSSC[C@@H](C(=O)O)NC(=O)[C@H](CO)NC(=O)[C@H]([C@@H](C)O)NC(=O)[C@H](Cc2ccc(O)c(I)c2)NC(=O)[C@H]([C@@H](C)O)NC(=O)[C@H](CCCCN)NC(=O)[C@H](Cc2c[nH]c3ccccc23)NC(=O)[C@H](Cc2ccccc2)NC(=O)[C@H](Cc2ccccc2)NC(=O)[C@H](CC(N)=O)NC(=O)[C@H](CCCCN)NC1=O [125I-Tyr11 somatostatin] (H-AGCKNFFWKT[Tyr(3-I)]TSC-OH; disulfide 3-14 (inferred); N-terminus and C-terminus assumed)
